Measurements reported in patent US11878018B1, “Phosphorylation of Syntaxin 17 by TBK1 controls autophagy initiation” (priority 2018, dated 2024).

Assays:
[1] = tested on: Stx17 phosphorylation (Stx17^pS02) by TBK1; assay: Western blot of Stx17 phosphorylation at Ser-202 in HeLa cells; type: cell-based, human
[2] = tested on: LDH sequestration in autophagosomes, HeLa cells; assay: LDH (lactate dehydrogenase) sequestration assay; type: cell-based, human; details: WT HeLa cells, EBSS 2 h in presence of bafilomycin A1; 3-methyladenine 10 mM as positive control (FIG. 7N,O)

O=C(NCCCNc1nc(Nc2cccc(NC(=O)N3CCCC3)c2)ncc1I)c1cccs1 [BX795]
Stx17 phosphorylation (Stx17^pS02) ([1]; cells stimulated with LPS, HeLa WT or TBK1 KO cells, Western blot (FIG. 8I)): inhibited Stx17 phosphorylation | baseline Stx17^pS02 levels ([1]; unstimulated cells, Western blot (FIG. 8I)): reduced the low baseline levels

CC(=O)N[C@H]1C(O)O[C@H](CO)[C@@H](O)[C@@H]1O[C@H](C)C(=O)N[C@@H](C)C(=O)N[C@H](CCC(=O)O)C(N)=O (mixture of isomers) [MDP, muramyl-dipeptide]
Stx17^pS02 band response to agonists of TBK1 ([1]; HeLa cells, Western blot (FIG. 8H), band also detectable in resting cells): responsive

Cn1cnc(N)c2ncnc1-2 [3MA, 3-methyladenine]
LDH (bulk autophagy cargo) sequestration in autophagosomes [2]: reduction in cargo sequestration
